Results on 1 molecule are retold here after patent publication US11234997B2, “Antibacterial activity of galactooligosaccharide and xylitol in dermatological treatments” (ROTTAPHARM SPA, priority 2017, dated 2022).

Experiment [1] relates to S. aureus 815 (clinical strain). Nature of the experiment: Planktonic phase growth reduction (OD600). The format is cell-based, Staphylococcus aureus. The settings on record: GOS 0%. The method, then: (§1) Galactooligosaccharide and xylitol were evaluated alone and in combination at different concentrations (concentrations: 0, 1, 2.5 and 5%) to affect bacterial planktonic production and biofilm-forming ability of standardized broth cultures of S. aureus 815 (clinical strain) and S. epidermidis 317 (clinical strain) was assessed. Different concentrations of galactooligosaccharide, xylitol and their combination, were added to a 96 well plate to evaluate their in vitro effect on S. aureus and S. epidermidis bacterial planktonic population. The overnight bacterial inocula were prepared in Tryptic soy broth (TSB), refreshed in the same medium and adjusted to OD600=0.12 (approximately 5×10^6 CFU/ml) for the experiments. For the controls, galactooligosaccharide and xylitol were also assayed alone. The plates were incubated for t=3, and 6 h at 37° C. in aerobic conditions. Each determination was performed in duplicate for three independent experiments and the biomass was evaluated using a safranin staining method. After each time of incubation, the reduction of the OD600 was evaluated in respect to the controls and the colony forming units (CFU)/ml at 0 and 24 h were detected. Table 3 outlines the percentage reduction of S. aureus 815 and S. epidermidis 317 growth in planktonic phase in the presence of galactooligosaccharide, xylitol and their combinations at different concentrations (OD600) after 3 and 6 h.

For experiment [2] the test system is unchanged. As to the kind of experiment: Biofilm phase reduction (safranin staining, OD492). Format: cell-based, Staphylococcus aureus. The settings on record: GOS 0%; for percentage of biofilm reduction (anti-adhesive): 3 h; for percentage of biofilm reduction (anti-biofilm): 24 h. The protocol: (§2) Galactooligosaccharide and xylitol were evaluated alone and in combination at different concentrations (concentrations: 0, 1, 2.5 and 5%) to affect bacterial planktonic production and biofilm-forming ability of standardized broth cultures of S. aureus 815 (clinical strain) and S. epidermidis 317 (clinical strain) was assessed. Bacterial suspensions grown in TSB supplemented with 0.5% (v/v) glucose at logarithmic phase, were incubated on 96 flat-bottomed microliter plates in the presence of galactooligosaccharide or xylitol or their combination at different concentrations or TSB (control). After incubation for 3 h and 24 h at 37° C., each well was washed twice with sterile PBS, air-dried, stained for 1 min with 0.1% safranin, and washed with PBS. The stained biofilm were re-suspended in 200 μl ethanol (95% v/v), and OD492 was measured by spectrophotometry using an ELISA reader. Table 4 outlines the percentage of biofilm reduction (anti-adhesive (3 h) and anti-biofilm (24 h)) of S. aureus 815 and S. epidermidis 317 in the presence of galactooligosaccharide, xylitol and their combinations at different concentrations.

For experiment [3], the system named is S. epidermidis 317 (clinical strain). As to the kind of experiment: Planktonic phase growth reduction (OD600). The format is cell-based, Staphylococcus epidermidis. The settings on record: GOS 0%. The protocol:
as §1

For experiment [4] the test system is unchanged. Nature of the experiment: Biofilm phase reduction (safranin staining, OD492). Format: cell-based, Staphylococcus epidermidis. Conditions: GOS 0%; for percentage of biofilm reduction (anti-adhesive): 3 h; for percentage of biofilm reduction (anti-biofilm): 24 h. The protocol: as §2

On to `OC[C@@H](O)[C@H](O)[C@@H](O)CO` [Xylitol, xylitol], for which the “percentage reduction of growth in planktonic phase (OD600)” value in experiment [1] (xylitol 1%, 3 h) stood at 14.38%; in experiment [1] (xylitol 1%, 6 h), 15.86%; in experiment [1] (xylitol 2.5%, 3 h), 23.93%; in experiment [1] (xylitol 2.5%, 6 h), 27.80%; in experiment [1] (xylitol 5%, 3 h), 26.70%; in experiment [1] (xylitol 5%, 6 h), 35.13%. Also, the “percentage reduction of growth in planktonic phase (OD600)” value is 13.40% in experiment [3] (xylitol 1%, 3 h); 22.11% in experiment [3] (xylitol 1%, 6 h); 19.36% in experiment [3] (xylitol 2.5%, 3 h); 28.57% in experiment [3] (xylitol 2.5%, 6 h); 27.13% in experiment [3] (xylitol 5%, 3 h); 29.99% in experiment [3] (xylitol 5%, 6 h). In addition, the “percentage of biofilm reduction (anti-adhesive)” value in experiment [2] (xylitol 1%) worked out at 21.61%; in experiment [2] (xylitol 2.5%), 28.81%; in experiment [2] (xylitol 5%) it was 36.98%; in experiment [4] (xylitol 1%), 1.00%; in experiment [4] (xylitol 2.5%) it was 10.64%; in experiment [4] (xylitol 5%), 14.16%. The “percentage of biofilm reduction (anti-biofilm)” value is 51.68% in experiment [2] (xylitol 1%); 47.8% in experiment [2] (xylitol 2.5%); 56.02% in experiment [2] (xylitol 5%); 22.81% in experiment [4] (xylitol 1%); 22.18% in experiment [4] (xylitol 2.5%); 5.67% in experiment [4] (xylitol 5%).
